Patent US20250270227A1, “CAMPTOTHECIN DERIVATIVE, AND PHARMACEUTICAL COMPOSITION AND USE THEREOF” (SIMCERE ZAIMING PHARMACEUTICAL CO., LTD., priority 2021, published 2025)
Read-outs that look alike come from different tables or passages of the source.

Legend:
Assay type in all cases: cell-based
[1] = test system: human ovarian cancer cell line OVCAR3; assay: Test 1 of anti-proliferative activity against tumor cells (Cell-Titer Glo)
Method: (§1) Cell culture: HCT116 cells and SKBR3 cells were cultured in McCoy's 5a medium containing 10% fetal bovine serum+1% penicillin-streptomycin at 37° C. and 5% CO2, and OVCAR3 cells were cultured in 1640 medium containing 20% fetal bovine serum+2 μg/mL bovine insulin+1% penicillin-streptomycin at 37° C. and 5% CO2. Cells in logarithmic growth phase were suitable for the experiment.
(§2) Detection of cell proliferation activity: The inhibitory activity of the compounds on the proliferation of the three cell lines HCT116, SKBR3 and OVCAR3 was detected using Cell-Titer Glo reagent. HCT116 cells (1500 cells per well), SKBR3 cells (3000 cells per well) and OVCAR3 cells (5000 cells per well) were seeded in 96-well plates and cultured at 37° C. and 5% CO2 for 24 h. The solution of the compound to be tested (the compound was dissolved in DMSO with the concentration of the compound being 1 mM, then the compound was diluted to 3 μM with DMSO, with 3-fold dilution and a total of 9 concentrations, and 10 μL of the prepared compound solution was transferred to a 96-well plate with the final concentration of 0-300 nM) was added. The cells were placed at 37° C. and 5% CO2 for further culture. HCT116 cells were cultured for 3 days, and SKBR3 cells and OVCAR3 cells were cultured for 5 days. The cell viability was detected by adding Cell-Titer Glo reagent.
(§3) Additionally, a negative control group and a positive control group were provided as Bottom and Top, respectively. In the negative control group, the cells were not added, only the same volume of medium was added, and other operations were consistent with those in the experimental group; in the positive control group, the test compound was not added, only the same volume of DMSO was added, and other operations were consistent with those in the experimental group.
(§4) Data analysis: The % compound inhibition was calculated, and fitting was performed to obtain IC50 of the compound.
(§5) % Compound inhibition=1−100%*(Signal−Bottom)/(Top−Bottom).
(§6) Signal represents the signal value of the experimental group, Bottom represents the average signal value of the negative control group, and Top represents the average signal value of the positive control group.

[2] = test system: Human colorectal cancer cell line HCT116; assay: as above
Method: as §1, §2, §3, §4, §5, §6

[3] = test system: human ovarian cancer cell line PA-1; assay: Test 2 of anti-proliferative activity against tumor cells (Cell-Titer Glo)
Method: (§7) Cell culture: SK-OV-3 cells were cultured in McCoy's 5a medium containing 10% fetal bovine serum+1% penicillin-streptomycin, PA-1 cells were cultured in MEM medium containing 10% fetal bovine serum+1% MEM NEAA+1% sodium pyruvate+1% penicillin-streptomycin, NCI-H82 cells and MDA-MB-231 cells were cultured in 1640 medium containing 10% fetal bovine serum+1% penicillin-streptomycin, A549 cells were cultured in DMEM medium containing 10% fetal bovine serum+1% penicillin-streptomycin, all under conditions of 37° C. and 5% CO2. Cells in logarithmic growth phase were suitable for the experiment.
(§8) Detection of cell proliferation activity: The inhibitory activity of the compounds on the proliferation of the five cell lines SK-OV-3, PA-1, NCI-H82, MDA-MB-231 and A549 was detected using Cell-Titer Glo reagent. SK-OV-3 cell (1000 cells per well), PA-1 cells (800 cells per well), NCI-H82 cells (5000 cells per well), MDA-MB-231 cells (3000 cells per well) and A549 cells (400 cells per well) were seeded in 96-well plates and cultured at 37° C. and 5% CO2 for 24 h. The compound to be tested was dissolved in DMSO to a concentration of 1 mM, then subjected to gradient dilution with DMSO and corresponding medium, and transferred to 96-well cell plates to a final concentration of 300 nM (initial concentration), with 3-fold dilution and a total of 9 concentration points. The cells were cultured at 37° C. and 5% CO2 for additional 5 days. The cell viability was detected by adding Cell-Titer Glo reagent.
as §3, §4, §5, §6

[4] = test system: Human ovarian cancer cell line SK-OV-3; assay: as above
Method: as §7, §8, §3, §4, §5, §6

[5] = test system: human breast cancer cell line MDA-MB-231; assay: as above
Method: as §7, §8, §3, §4, §5, §6

[6] = test system: human small cell lung cancer cell line NCI-H82; assay: as above; conditions: Homo sapiens, NCI-H82, 120 h, read-out: NCI-H82 Anti-proliferative activity IC50 (nM), NCI-H82 cells, 5 days, Cell-Titer Glo
Method: as §7, §8, §3, §4, §5, §6

[7] = test system: human non-small cell lung cancer cell line A549; assay: as above
Method: as §7, §8, §3, §4, §5, §6

[8] = test system: human breast cancer cell line SKBR3; assay: Test 1 of anti-proliferative activity against tumor cells (Cell-Titer Glo)
Method: as §1, §2, §3, §4, §5, §6

[9] = Homo sapiens, OVCAR-3, 120 h, read-out: OVCAR3 Anti-proliferative activity IC50 (nM)
[10] = Homo sapiens, HCT-116, 72 h, read-out: HCT116 Anti-proliferative activity IC50 (nM), HCT116 cells, cultured 3 days with compound, Cell-Titer Glo
[11] = Homo sapiens, PA-1, 120 h, read-out: PA-1 Anti-proliferative activity IC50 (nM), PA-1 cells, 5 days, Cell-Titer Glo
[12] = Homo sapiens, SK-OV-3, 120 h, read-out: SK-OV-3 Anti-proliferative activity IC50 (nM)
[13] = Homo sapiens, MDA-MB-231, 120 h, read-out: MDA-MB-231 Anti-proliferative activity IC50 (nM)
[14] = Homo sapiens, A549, 120 h, read-out: A549 Anti-proliferative activity IC50 (nM), A549 cells, 5 days, Cell-Titer Glo
[15] = Homo sapiens, OVCAR-3, 120 h, OVCAR3 cells, cultured 5 days with compound, Cell-Titer Glo, read-out: OVCAR3 Anti-proliferative activity IC50
[16] = Homo sapiens, SK-BR-3, 120 h, SKBR3 cells, cultured 5 days with compound, Cell-Titer Glo, read-out: SKBR3 Anti-proliferative activity IC50
[17] = Homo sapiens, PA-1, 120 h, PA-1 cells, 5 days, Cell-Titer Glo, read-out: PA-1 Anti-proliferative activity IC50
[18] = Homo sapiens, SK-OV-3, 120 h, SK-OV-3 cells, 5 days, Cell-Titer Glo, read-out: SK-OV-3 Anti-proliferative activity IC50
[19] = Homo sapiens, MDA-MB-231, 120 h, MDA-MB-231 cells, 5 days, Cell-Titer Glo, read-out: MDA-MB-231 Anti-proliferative activity IC50
[20] = Homo sapiens, A549, 120 h, A549 cells, 5 days, Cell-Titer Glo, read-out: A549 Anti-proliferative activity IC50

Compound | IC50 [1, 9] [nM] | IC50 [2, 10] [nM] | IC50 [3, 11] [nM] | IC50 [4, 12] [nM] | IC50 [5, 13] [nM] | IC50 [7, 14] [nM] | IC50 [1, 15] [nM] | IC50 [8, 16] [nM] | IC50 [3, 17] [nM] | IC50 [4, 18] [nM] | IC50 [5, 19] [nM] | IC50 [7, 20] [nM] | also measured
CC[C@@]1(O)C(=O)OCc2c1cc1n(c2=O)Cc2c-1nc1cc3c(c(Cl)c1c2CNC(=O)CO)OCO3 [Compound 31, (S)-N-((15-chloro-7-ethyl-7-hydroxy-8,11-dioxo-7,8,11,13-tetrahydro-10H-[1,3]dioxolo[4,5-g]pyrano[3′,4′:6,7]indolizino[1,2-b]quinolin-14-yl)methyl)-2-hydroxyacetamide] | 0.2 | 1.2 | 1.7 | 12.3 | 13.5 | 15.9 | – | – | – | – | – | – | IC50 [6]: 4 nM
CC[C@@]1(O)C(=O)OCc2c1cc1n(c2=O)Cc2c-1nc1cc3c(c(F)c1c2CN)OCO3 [Compound 35, (S)-14-(aminomethyl)-7-ethyl-15-fluoro-7-hydroxy-10,13-dihydro-11H-[1,3]dioxolo[4,5-g]pyrano[3′,4′:6,7]indolizino[1,2-b]quinoline-8,11(7H)-dione] | 0.9 | – | 0.8 | – | – | – | – | – | – | – | – | – | –
CC[C@@]1(O)C(=O)OCc2c1cc1n(c2=O)Cc2c-1nc1cc3c(c(F)c1c2CNC(=O)C(O)C1CC1)OCO3 (stereo partly drawn) [Compound 37, 2-cyclopropyl-N-(((S)-7-ethyl-15-fluoro-7-hydroxy-8,11-dioxo-7,8,11,13-tetrahydro-10H-[1,3]dioxolo[4,5-g]pyrano[3′,4′:6,7]indolizino [1,2-b]quinolin-14-yl)methyl)-2-hydroxyacetamide] | 1.2 | 8.1 | 0.9 | 3.5 | 23.9 | 19.6 | – | – | – | – | – | – | IC50 ([8]; Homo sapiens, SK-BR-3, 120 h, read-out: SKBR3 Anti-proliferative activity IC50 (nM), SKBR3 cells, cultured 5 days with compound, Cell-Titer Glo): 3.5 nM
CC[C@@]1(O)C(=O)OCc2c1cc1n(c2=O)Cc2c-1nc1cc3c(c(F)c1c2CNC(=O)[C@@H](O)C1CC1)OCO3 [Compound 37-P2, 2-cyclopropyl-N-(((S)-7-ethyl-15-fluoro-7-hydroxy-8,11-dioxo-7,8,11,13-tetrahydro-10H-[1,3]dioxolo[4,5-g]pyrano[3′,4′:6,7]indolizino [1,2-b]quinolin-14-yl)methyl)-2-hydroxyacetamide] | – | – | – | – | – | – | 1.8 | 3.6 | 1.1 | 3 | 25.9 | 16.1 | –
[2H]C1([2H])Oc2cc3nc4c(c(CNC(=O)[C@@H](O)C5CC5)c3cc2O1)Cn1c-4cc2c(c1=O)COC(=O)[C@]2(O)CC [Compound 39-P1, 2-cyclopropyl-N-(((S)-7-ethyl-7-hydroxy-8,11-dioxo-7,8,11,13-tetrahydro-10H-[1,3]dioxolo[4,5-g]pyrano[3′,4′:6,7]indolizino[1,2-b]quinolin-14-yl-2,2-d2)methyl)-2-hydroxyacetamide] | – | – | – | – | – | – | 0.6 | 1.9 | 0.9 | 1.9 | 15.6 | 13.9 | IC50 ([2]; Homo sapiens, HCT-116, 72 h, HCT116 cells, cultured 3 days with compound, Cell-Titer Glo, read-out: HCT116 Anti-proliferative activity IC50): 4.6 nM
[2H]C1([2H])Oc2cc3nc4c(c(CNC(=O)[C@@H](O)C5CC5)c3cc2O1)Cn1c-4cc2c(c1=O)COC(=O)[C@]2(O)CC [Compound 39-P2, 2-cyclopropyl-N-(((S)-7-ethyl-7-hydroxy-8,11-dioxo-7,8,11,13-tetrahydro-10H-[1,3]dioxolo[4,5-g]pyrano[3′,4′:6,7]indolizino[1,2-b]quinolin-14-yl-2,2-d2)methyl)-2-hydroxyacetamide] | – | – | – | – | – | – | – | – | – | – | – | – | IC50 ([1]; OVCAR3 cells, cultured 5 days with compound, Cell-Titer Glo, read-out: OVCAR3 Anti-proliferative activity IC50): 1 nM; IC50 ([8]; SKBR3 cells, cultured 5 days with compound, Cell-Titer Glo, read-out: SKBR3 Anti-proliferative activity IC50): 2.9 nM; IC50 ([2]; HCT116 cells, cultured 3 days with compound, Cell-Titer Glo, read-out: HCT116 Anti-proliferative activity IC50): 6.5 nM; IC50 ([3]; PA-1 cells, 5 days, Cell-Titer Glo, read-out: PA-1 Anti-proliferative activity IC50): 1.2 nM; IC50 ([4]; SK-OV-3 cells, 5 days, Cell-Titer Glo, read-out: SK-OV-3 Anti-proliferative activity IC50): 2.1 nM; IC50 ([5]; MDA-MB-231 cells, 5 days, Cell-Titer Glo, read-out: MDA-MB-231 Anti-proliferative activity IC50): 23.2 nM; IC50 ([7]; A549 cells, 5 days, Cell-Titer Glo, read-out: A549 Anti-proliferative activity IC50): 15.7 nM
